Values quoted from earlier work as cited in patent US20190160058A1, “METHODS OF TREATMENT WITH SELECTIVE CB2 RECEPTOR AGONISTS” (Arena Pharmaceuticals, Inc., priority 2016, published 2019).

Key:
[1] = system: bone marrow-derived osteoblasts/stromal cells; conditions: in vitro; cited from earlier work
[2] = system: ovariectomy-induced bone loss; conditions: in vivo; cited from earlier work
EAE mouse model = conditions: in vivo; cited from earlier work
conscious guinea-pigs = conditions: given prior to exposure to citric acid; cited from earlier work
[3] = system: human vagus nerve preparations; conditions: in vitro; cited from earlier work
[4] = system: guinea pig vagus nerve preparations; conditions: in vitro; cited from earlier work
RPE cells = conditions: cited from earlier work
[5] = system: LPS-induced bladder inflammation; conditions: in vivo; cited from earlier work
mice = conditions: cited from earlier work
[6] = system: bovine nasal cartilage explants; conditions: in vitro; cited from earlier work
guinea pigs = conditions: cited from earlier work

## CCCCCCC(C)(C)c1cc(OC)c([C@@H]2C=C(CO)[C@@H]3C[C@H]2C3(C)C)c(OC)c1 [HU-308]
[1]
  osteoblast numbers and activity, osteoclast precursor proliferation: enhances endocortical osteoblast numbers and activity while simultaneously inhibiting proliferation of osteoclast precursors
[2]
  bone loss and cortical thickness: attenuates ovariectomy-induced bone loss and stimulates cortical thickness
EAE mouse model
  cell recruitment, proliferation and axonal loss: markedly reduces the recruitment of immature myeloid cells and T cells, microglial and infiltrating myeloid cell proliferation, and axonal loss

## CCCC(C)(C)c1ccc2c(c1)OC(C)(C)[C@@H]1CC=C(C)C[C@@H]21 [JWH133]
Conscious guinea-pigs
  cough: significantly reduces cough
[3]
  capsaicin-, PGE2-, and hypertonic saline-induced depolarization: reduces capsaicin-, PGE2-, and hypertonic saline-induced depolarization
[4]
  capsaicin-, PGE2-, and hypertonic saline-induced depolarization: reduces capsaicin-, PGE2-, and hypertonic saline-induced depolarization

## CCCn1c(C)c(C(=O)c2cccc3ccccc23)c2ccccc21 [JWHO15]
RPE cells
  protection from oxidative damage: provides comparable protection
[5]
  LPS-induced bladder inflammation: antagonize LPS-induced bladder inflammation

## Cc1c(C(=O)c2cccc3ccccc23)c2cccc3c2n1[C@H](CN1CCOCC1)CO3 [WIN 55212-2]
mice
  number of capsaicin-induced coughs: dose-dependent inhibition
EAE mouse model
  leukocyte rolling and adhesion in the brain: significantly inhibits leukocyte rolling and adhesion in the brain
[6]
  IL-1alpha-stimulated proteoglycan and collagen degradation: significantly inhibit

## CCCCC/C=C\C/C=C\C/C=C\C/C=C\CCCC(=O)NCCO [anandamide]
Guinea pigs
  number of capsaicin-induced coughs: dose-dependent inhibition
